Results on one compound are retold here after US12508280B2, “Formulations for improving gut health” (DSM IP ASSETS B.V., priority 2018, dated 2025).

The subject of one experiment is Bifidobacterium. The experiment is described as follows: Microbiome composition by shotgun sequencing: Bifidobacterium (first set). The class given is cell-based, human. The conditions noted are these: after 24 h fermentation, vs corresponding control. The procedure:
(§1) Since ethanol is known to have antimicrobial effects, two blanks for each type of stock solution were included. As a source of the microbial community, a freshly prepared fecal suspension from the selected donor was added to the reactors. […] All tests, except the blanks, were performed in single repetition, resulting in 40 independent incubations, as specified in Table 1. Incubation conditions of the pre-screening experiment and the final experiment were 48 h at 37° C., under shaking (90 rpm) and anaerobic conditions. DNA were extracted from effluent samples collected from each fermentation flask before (0 h fermentation) and after fermentation (24 h fermentation) and use for microbiome composition analysis by Shotgun sequencing. Effluent samples were collected from each fermentation flask before (0 h fermentation) and after fermentation (48 h fermentation), sterilized by filtering through 0.22 μm filters and used for short chain fatty acids (SCFA), quantification of immunological biomarkers and in vitro analysis in cell culture systems.
(§2) For the first set of in vitro experiments, total DNA was extracted from all samples collected throughout the study using the QIAamp DNA stool minikit (Qiagen, Crawley, United Kingdom) according to the manufacturer's instructions, apart from addition of a bead-beating step and increasing the lysis temperature to 95° C. as described previously (McCormack et al., 2018).
(§3) After DNA isolation, DNA was quantified using the Qubit High Sensitivity DNA assay (Thermo Fisher). Whole metagenome libraries were then prepared using the Illumina Nextera XT kit (Illumina) in accordance with the manufacturer's instructions, with the following modifications: Firstly, tagmentation time was increased to 7 min and secondly, following incorporation of indices and Ampure purification of the products, the samples were each individually sized by running on an Agilent High Sensitivity Chip (Agilent) and quantified using the Qubit High Sensitivity DNA assay (Thermo Fisher) in accordance with Teagasc Sequencing Platform SOPs. The samples were then pooled equimolarly and sequenced on the Illumina NextSeq 500 with a NextSeq 500/550 v2 high-output reagent kit (300 cycles). All sequencing was done in the Teagasc sequencing facility in accordance with standard Illumina sequencing protocols.
(§4) Delivered raw FASTQ sequence files were quality checked as follows: poor quality and duplicate read removal, as well as trimming was implemented using a combination of SAM and Picard tools. Taxonomy was assigned to the reads using the Kraken software and functional analysis was performed with Super focus.

For experiment [1], the system named is genes involved in Acetyl-CoA fermentation to Butyrate pathway. Kind of experiment: Shotgun sequencing functional analysis: butyrate pathway genes (first set). The conditions noted are these: 0.2× dose; after 24 h fermentation; vs corresponding control. It counts as cell-based, human. The procedure: as §1, §2, §3, §4
The test system of experiment [2] is fecal microbial community. Kind of experiment: Microbiome composition by shotgun sequencing: alpha diversity (first set). The conditions noted are these: after 24 h fermentation, vs corresponding control. The class given is cell-based, human. The procedure:
as §1, §2, §3, §4

Experiment [3] concerns Co-cultures of Caco-2 and HT29-MTX-E12 cells. The experiment is described as follows: Barrier integrity, leaky gut model, apical stressor Rhamnolipids. The class given is cell-based. The conditions noted are these: 48 h minus 0 h fermentation samples, vs corresponding control.
Method: Since ethanol is known to have antimicrobial effects, two blanks for each type of stock solution were included. As a source of the microbial community, a freshly prepared fecal suspension from the selected donor was added to the reactors. […] All tests, except the blanks, were performed in single repetition, resulting in 40 independent incubations, as specified in Table 1. Incubation conditions of the pre-screening experiment and the final experiment were 48 h at 37° C., under shaking (90 rpm) and anaerobic conditions. […] Effluent samples were collected from each fermentation flask before (0 h fermentation) and after fermentation (48 h fermentation), sterilized by filtering through 0.22 μm filters and used for short chain fatty acids (SCFA), quantification of immunological biomarkers and in vitro analysis in cell culture systems.
Co-cultures of Caco-2 and HT29-MTX-E12 cells were used to assess the protective effect of the supernatants before (0 h) and after fermentation (48 h) for both sets of in vitro experiments above.
CaCo-2 ECACC 86010202 and HT29-MTX-E12 ECACC 12040401 cells (both from European Collection of Cell Cultures, Salisbury, UK) were both cultured at 37° C., in atmosphere of 5% CO2 in DMEM medium supplemented with 4.5 g/L D-Glucose, 4 mM L-Glutamine, 1 mM Sodium Pyruvate, 1% MEM Non-Essential Amino Acids, 50 μg/mL Gentamicin (Life Technologies Europe B.V., Zug, Switzerland) and 10% heat-inactivated FBS (Sigma-Aldrich, Buchs, Switzerland). Sub-confluent cells were trypsinized using 0.25% Trypsin/EDTA (Life Technologies Europe B.V., Zug, Switzerland) and passaged at a ratio of 1:5-1:10 twice a week. Cells between passages 55 and 85 were used for this study.
Cells were seeded at a density of 20000 cells/well in a 7:3 ratio (Caco-2:HT29-MTX-E12) in Corning HTS Transwell-24 system PET membranes, 0.4 μM pore size, cell growth area 0.33 cm2/well (Corning BV, Amsterdam, Netherlands) and cultured as described above. Media was changed every second to third day.
For both sets of in vitro experiments, the integrity of cell monolayers after the stressor test was evaluated by both TEER values and by measuring the transport of Lucifer yellow from apical to basolateral compartments (Leaky gut model). A prewarmed HBSS transport buffer composed of Hank's Balanced Salt Solution pH 7.4 with Ca2+ and Mg2+, containing 5.5 mM D-(+)-glucose, Sodium Bicarbonate, and supplemented with 4 mM L-glutamine, 20 mM HEPES (Life Technologies Europe B.V., Zug, Switzerland) was used for all permeability experiments. The inserts were rinsed twice with HBSS using a reservoir tray, 100 μl HBSS were then added to the apical site of the inserts and subsequently moved to new wells with fresh HBSS and allowed to equilibrate at 37° C. for 60 min in the incubator followed by TEER measurement to obtain baseline resistance readings.
Lucifer Yellow CH dilithium salt (Sigma-Aldrich, Buchs, Switzerland) was dissolved in HBSS at a final concentration of 100 μg/ml. Basolateral stressor EtOH (Merck, KgaA, Darmstadt, Germany) was diluted to 5% in HBSS. Apical Stressor Rhamnolipids R90 (AGAE Technologies, Corvallis, USA) was dissolved in HBSS containing Lucifer Yellow at a final concentration of 350 μg/ml. All solutions were prepared freshly each time.
The HBSS transport buffer from the basolateral chamber was aspirated first, then the HBSS from the apical chamber and replaced with Lucifer yellow solution. For the apical stressor test, Lucifer yellow solution containing 350 μg/ml Rhamnolipids or Lucifer yellow solution without stressor for the control wells was loaded into the apical compartment, blank HBSS was subsequently added to the basolateral chamber.
The next experiment has as its system HT29 cells. Kind of experiment: HT29 cell culture, quantification of immunological biomarkers. It counts as cell-based. The conditions noted are these: effluent from 24 h fermentation, vs corresponding control. The procedure:
as §1, with “([…]), […]” for “(0 h fermentation) and after fermentation (48 h fermentation), sterilized by filtering through 0.22 μm filters and used for short chain fatty acids (SCFA), quantification of immunological biomarkers and in vitro analysis in”
For both sets of in vitro experiments, HT29 cells were obtained from American Type Culture Collection (Manassas, VA). Cells were cultured in DMEM supplemented with 10% fetal bovine serum (FBS), 50 units/ml penicillin, 50 μg/ml streptomycin, L-glutamine, and nonessential amino acids (Life Technologies Europe B.V., Zug, Switzerland). Cells were seeded into 12-well plates at 8×10^5 cells per well and used after 2 days of preculture. They were starved in DMEM containing 0.25% FBS for 18 h before treatment. Cells were treated for 24 hours with TNF-α at 100 ng/mL or fermentation supernatants which were sterile filtered and diluted 1:20 in DMEM containing 0.25% FBS. All treatments were done in triplicate. Consequently, cytokines, chemokines and interleukins were quantified in HT29 supernatants using the Luminex Technology (LiquiChip Workstation IS 200, Qiagen, Hilden, Germany) with Bio-Plex Pro Human Cytokine Panel kits (Bio-Rad, Hercules, CA) or with Luminex Screening Assay kits (R&D Systems, Inc., Minneapolis, MN), following the manufacturer's instructions. The data were acquired with the Luminex IS 2.3 software and evaluated with the LiquiChip Analyser software (Qiagen, Hilden, Germany).

Experiment [4] deals with fecal suspension from the selected donor. Kind of experiment: Intestinal batch fermentation, SCFA production (first set). The class given is cell-based, human. The conditions noted are these: after 48 h fermentation, vs corresponding control. The procedure:
In a first set of in vitro experiments at the start of intestinal batch fermentation incubation, all test ingredients were added from stock solutions to the modified nutritional medium, containing (g/l): 2.5 K2HPO4, 10.9 KH2PO4, 2 NaHCO3, 2 yeast extract, 2 peptone, 1 mucin, 0.5 cysteine, 2 Tween 80, 2 glucose, 2 starch, 2 cellobiose, 0.1 NaCl, 0.01 MgSO4·7H2O, 0.01 CaCl2·6H2O, 0.05 hemin, 0.5 bile salts.
The other compounds were prepared in ethanol: • Vitamin K1 (VK1), • MEG-3 0080 EE Oil (MEG-3 0080 EE), • MEG-3 4535 EE Oil (MEG-3 4535 EE), • MEG-3 8000 EE Oil (MEG-3 8000 EE).
as §1
Short chain fatty acids (SCFA) are an assessment of the microbial carbohydrate metabolism (acetate, propionate and butyrate) or protein metabolism (branched SCFA) and can be compared to typical fermentation patterns for normal GI microbiota. Samples for SCFA analysis were analyzed after 0, 6, 24 and 48 h of incubation for both set of in vitro experiments, above.
SCFA were extracted from the samples with diethyl ether, after the addition of 2-methyl hexanoic acid as an internal standard. Extracts were analysed using a GC-2014 gas chromatograph (Shimadzu's-Hertogenbosch, the Nether-lands), equipped with a capillary fatty acid-free EC-1000Econo-Cap column (dimensions: […]×0.53 mm, film thickness […]; Alltech, Laarne, Belgium), a flame ionization detector and a split injector. The injection volume was […] and the temperature profile was set from 110 to 160° C., with a temperature increase of 6° C. min-1. The carrier gas was nitrogen and the temperature of the injector and detector were […] and 220° C., respectively. The production of unbranched and branched SCFA was calculated by summing the molar concentrations of acetate, propionate, butyrate, valerate and caproate, and summing isobutyrate, isovalerate and isocaproate molar concentrations, respectively. The total SCFA production was defined as the sum of unbranched and branched SCFA.

For the compound `Nc1nc2ncc(CNc3ccc(C(=O)N[C@@H](CCC(=O)O)C(=O)O)cc3)nc2c(=O)[nH]1` [folic acid, Folic acid], the Bifidobacterium relative abundance result in the experiment with Bifidobacterium (0.2× dose) and in the experiment on Bifidobacterium (1× dose) was “increase Bifidobacterium relative abundance” each time. Also, the “relative abundance of genes involved in Acetyl-CoA fermentation to Butyrate pathway” value in experiment [1] is given as “increase relative abundance”. In addition, the “microbiome alpha diversity (Shannon diversity index)” value in experiment [2] (0.2× dose) and in experiment [2] (1× dose) was “increase microbiome diversity” throughout. The “TEER, apical induction of leaky gut cellular model” value in experiment [3] (0.2× dose) and in experiment [3] (1× dose) was “increase TEER” throughout. For the same compound, the “IL-8 production by HT29 cells” value with HT29 cells (0.2× dose) and in the experiment with HT29 cells (5× dose) was “increase IL-8 production” in each case. In addition, the acetate production result in experiment [4] (0.2× dose), in experiment [4] (1× dose) and in experiment [4] (5× dose) was “increase acetate production” throughout. Also, the butyrate production entry in experiment [4] (0.2× dose), in experiment [4] (1× dose) and in experiment [4] (5× dose) was “increase butyrate production” each time. In addition, the propionate production entry in experiment [4] (0.2× dose), in experiment [4] (1× dose) and in experiment [4] (5× dose) was “increase propionate production” throughout. Further, the “total SCFAs production” value in experiment [4] (0.2× dose), in experiment [4] (1× dose) and in experiment [4] (5× dose) was “increase total SCFAs production” throughout.
